Test results taken from patent US20090143279A1 (priority 2007, published 2009).
Like-named read-outs stand apart in the source and are kept apart here.

Legend:
[1] = test system: mitochondrial membrane potential; format: cell-based, mouse; settings: Conc 20 μM; for ΔΨm (composite Z-score): normalized score vs mock-treated (DMSO) wells
[2] = test system: reactive oxygen species; format: cell-based, mouse; settings: Conc 20 μM; for ROS (composite Z-score): normalized score vs mock-treated (DMSO) wells
[3] = test system: OXPHOS gene expression; format: cell-based, mouse; settings: Conc 20 μM; for GE-HTS (composite Z-score): normalized score vs mock-treated (DMSO) wells
[4] = test system: nuOXPHOS transcripts; format: cell-based, mouse; settings: for nucOX (composite Z-score) / nucOX: Conc 20 μM; for nucOX (composite Z-score): normalized score vs mock-treated (DMSO) wells
[5] = test system: mtOXPHOS transcripts; format: cell-based, mouse; settings: for mitoOX (composite Z-score) / mitoOX: Conc 20 μM; for mitoOX (composite Z-score): normalized score vs mock-treated (DMSO) wells
[6] = test system: cytochrome c; format: cell-based, mouse; settings: Conc 20 μM; for cyt c (composite Z-score): normalized score vs mock-treated (DMSO) wells
[7] = test system: C2C12 myotubes; settings: Conc 20 μM; for Viability (composite Z-score): normalized score vs mock-treated (DMSO) wells
[8] = test system: cellular dehydrogenase activity; settings: Conc 20 μM; for MTT (composite Z-score): normalized score vs mock-treated (DMSO) wells
[9] = composite Z-score vs mock-treated (DMSO) wells
[10] = Table 7, C2C12 myotubes, 48 h, composite Z-score
[11] = normalized composite Z-score vs mock-treated (DMSO) wells

SMILES	ΔΨm ([1]; composite Z-score vs DMSO)	ROS ([2]; composite Z-score vs DMSO)	GE-HTS ([3]; composite Z-score vs DMSO)	nucOX ([4]; composite Z-score vs DMSO)	mitoOX ([5]; composite Z-score vs DMSO)	cyt c ([6]; composite Z-score vs DMSO)	Viability ([7]; composite Z-score vs DMSO)	MTT ([8]; composite Z-score vs DMSO)	ΔΨm [1, 11]	ROS [2, 11]	GE-HTS [3, 11]	nucOX [4, 11]	mitoOX [5, 11]	cyt c [6, 11]	Viability [7, 11]	MTT [8, 11]	further results
O=C(/C=C/c1ccccc1)c1ccc(O[C@@H]2O[C@H](CO)[C@@H](O)[C@H](O)[C@H]2O)cc1O [2′,4′-dihydroxychalcone 4′-glucoside]	–	–	–	–	–	–	–	–	–	–	–	–	–	–	–	–	ΔΨm (composite Z-score) [1]: −0.532; ROS (composite Z-score) [2]: 1.144; GE-HTS (composite Z-score) [3]: −0.189; nucOX (composite Z-score) [4]: −0.247; mitoOX (composite Z-score) [5]: 0.004; cyt c (composite Z-score) [6]: −0.225; Viability (composite Z-score) [7]: 0.556; MTT (composite Z-score) [8]: −1.358
O=C(C=C(O)c1ccccc1)c1ccccc1O [2′,beta-dihydroxychalcone]	−0.044	0.194	0.097	−0.188	0.600	−0.260	−0.801	−1.791	–	–	–	–	–	–	–	–	–
COc1ccc(-c2coc3cc(O)ccc3c2=O)c(OC)c1 [2′-methoxyformonetin]	–	–	–	–	–	–	–	–	–	–	–	–	–	–	–	–	ΔΨm [1, 9]: 0.388; ROS [2, 9]: 1.137; GE-HTS [3, 9]: −0.484; nucOX [4, 9]: −0.561; mitoOX [5, 9]: −0.296; cyt c [6, 9]: −1.318; Viability [7, 9]: 0.477; MTT [8, 9]: −1.138
COc1cc(C=CC=O)cc(OC)c1OC [3,4,5-trimethoxycinnamaldehyde]	0.647	−0.228	−0.523	−0.724	0.025	−0.808	1.061	1.043	–	–	–	–	–	–	–	–	–
CC1(O)CC2C(CC1O)C2(C)C (stereo not shown) [3,4-dihydroxycarane]	−0.659	0.697	−1.265	−0.951	−1.620	0.475	0.448	−0.697	–	–	–	–	–	–	–	–	–
C=CC(C1=CC(=O)C(OC)=C(OC)C1=O)c1ccccc1 (stereo not shown) [3,4-dimethoxydalbergione, reference compound]	–	–	–	–	–	–	–	–	–	–	–	–	–	–	–	–	ΔΨm [1, 9]: −3.787; ROS [2, 9]: −1.269; GE-HTS [3, 9]: −3.047; nucOXPHOS Z [4, 10]: −2.94; nucOX [4, 9]: −2.944; mito-OXPHOS Z [5, 10]: −2.72; mitoOX [5, 9]: −2.724; cyt c [6, 9]: −5.551; Viability [7, 9]: −4.588; MTT [8, 9]: −6.200
CC(=O)c1cc(CC=C(C)C)c(O)c(CC=C(C)C)c1 [3,5-diprenyl-4-hydroxyacetophenone]	−0.022	1.014	0.149	−0.036	0.538	−0.220	−0.293	−0.582	–	–	–	–	–	–	–	–	–
COc1ccc2c(=O)c(OC)c(-c3ccccc3)oc2c1 [3,7-dimethoxyflavone]	–	–	–	–	–	–	–	–	0.817	0.652	−0.945	−1.084	−0.434	0.982	−0.730	−1.089	–
CC1CC(O)C2OC1CC1C(CC1(C)C)C2C (stereo not shown) [3,7-epoxycaryophyllan-6-ol]	–	–	–	–	–	–	–	–	−0.461	0.255	−1.018	−1.203	−0.407	0.604	−0.644	−1.302	–
COc1c(-c2ccccc2)oc2c(OC)cccc2c1=O [3,8-dimethoxyflavone]	–	–	–	–	–	–	–	–	−0.103	1.553	0.399	0.315	0.492	0.361	0.930	−0.252	–
COC(=O)C[C@H]1C(C)(C)[C@@H](O)[C@@H]2CC3=C4CC(O)O[C@@H](c5ccoc5)[C@]4(C)CCC3[C@@]1(C)C2=O (stereo partly drawn) [3,16-dideoxymexicanolide-3beta-diol]	–	–	–	–	–	–	–	–	0.154	0.587	0.150	0.282	−0.202	−0.130	−0.384	−1.091	–
CC(=O)OC1CC[C@@]2(C)C(CC[C@H]3[C@@H]4CC=C(C(C)=O)[C@@]4(C)C(=O)C[C@@H]32)C1 (stereo partly shown) [3-acetoxypregn-16-en-12,20-dione]	–	–	–	–	–	–	–	–	–	–	–	–	–	–	–	–	ΔΨm [1, 9]: −0.216; ROS [2, 9]: 0.201; GE-HTS [3, 9]: −0.885; nucOX [4, 9]: −0.775; mitoOX [5, 9]: −0.958; cyt c [6, 9]: −0.050; Viability [7, 9]: −0.873; MTT [8, 9]: −0.553
CC(=O)O[C@@H]1CC2C(C)(C)[C@H](O)C=C[C@]2(C)C2CC[C@]3(C)C(=CC(=O)O[C@H]3c3ccoc3)[C@@]21C (stereo partly drawn) [3-alpha-hydroxydeoxygedinin]	–	–	–	–	–	–	–	–	–	–	–	–	–	–	–	–	ΔΨm (composite Z-score) [1]: 1.760; ROS (composite Z-score) [2]: 0.531; GE-HTS (composite Z-score) [3]: −1.171; nucOX (composite Z-score) [4]: −1.202; mitoOX (composite Z-score) [5]: −0.939; cyt c (composite Z-score) [6]: −0.321; Viability (composite Z-score) [7]: 0.156; MTT (composite Z-score) [8]: −0.319
